Results from ChEMBL document CHEMBL4402543, “Bioisosteric Development of Multitarget Nonsteroidal Anti-Inflammatory Drug-Carbonic Anhydrases Inhibitor Hybrids for the Management of Rheumatoid Arthritis” (J Med Chem, 2020).
The source made the active and inactive calls.

Tests used:
Rattus norvegicus [1] = test: Antihyperalgesic activity in Sprague-Dawley rat model of Complete freund's adjuvant-induced arthritis assessed as pain threshold of ipsilateral paw at 13.4 mg/kg, po starting from day 14 after CFA injection and measured at 15 mins by paw pressure test (reference value: 40.1 +/- 0.7 g); type: functional
Rattus norvegicus [2] = test: Antihyperalgesic activity in Sprague-Dawley rat model of Complete freund's adjuvant-induced arthritis assessed as pain threshold of ipsilateral paw at 13.4 mg/kg, po starting from day 14 after CFA injection and measured at 30 mins by paw pressure test (reference value: 40.1 +/- 0.7 g); type: functional
Rattus norvegicus [3] = test: (§1) Antihyperalgesic activity in Sprague-Dawley rat model of Complete freund's adjuvant-induced arthritis assessed as reduction in difference between weight burdened on contralateral and ipsilateral paw at 13.4 mg/kg, po starting from day 14 after CFA injection and measured at 15 mins incapacitance test; type: functional, organism-based
[4] = Stability in PBS; type: physicochemical; settings: buffer
[5] = biological target: COX1 (Prostaglandin G/H synthase 1) (Homo sapiens, UniProt P23219); test: Inhibition of COX1 in human platelet rich plasma in assessed as inhibition of ADP-induced platelet aggregation at 10 uM incubated for 5 mins by turbidimetry based Born's method relative to control
COX1 (Prostaglandin G/H synthase 1), sequence (P23219 whole entry): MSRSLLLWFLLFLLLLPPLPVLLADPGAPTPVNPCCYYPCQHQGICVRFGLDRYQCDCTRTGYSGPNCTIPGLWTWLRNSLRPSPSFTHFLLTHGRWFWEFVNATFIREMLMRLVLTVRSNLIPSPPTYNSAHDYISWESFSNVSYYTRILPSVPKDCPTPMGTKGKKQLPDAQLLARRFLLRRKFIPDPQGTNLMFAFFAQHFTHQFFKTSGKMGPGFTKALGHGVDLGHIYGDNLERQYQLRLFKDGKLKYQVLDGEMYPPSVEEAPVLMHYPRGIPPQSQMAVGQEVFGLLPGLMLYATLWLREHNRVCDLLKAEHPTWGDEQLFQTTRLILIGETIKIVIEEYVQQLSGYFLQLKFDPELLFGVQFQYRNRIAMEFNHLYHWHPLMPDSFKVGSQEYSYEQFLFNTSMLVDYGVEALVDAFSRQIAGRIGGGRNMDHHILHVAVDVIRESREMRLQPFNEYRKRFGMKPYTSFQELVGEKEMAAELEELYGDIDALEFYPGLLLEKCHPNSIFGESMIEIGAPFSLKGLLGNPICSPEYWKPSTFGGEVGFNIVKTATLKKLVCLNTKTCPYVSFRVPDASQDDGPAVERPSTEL

Rattus norvegicus [6] = test: Antihyperalgesic activity in Sprague-Dawley rat model of Complete freund's adjuvant-induced arthritis assessed as pain threshold of ipsilateral paw at 30 mg/kg, po starting from day 14 after CFA injection and measured at 15 mins by paw pressure test (reference value: 40.1 +/- 0.7 g); type: functional
Rattus norvegicus [7] = test: Antihyperalgesic activity in Sprague-Dawley rat model of Complete freund's adjuvant-induced arthritis assessed as pain threshold of ipsilateral paw at 30 mg/kg, po starting from day 14 after CFA injection and measured at 30 mins by paw pressure test (reference value: 40.1 +/- 0.7 g); type: functional
Rattus norvegicus [8] = test: Antihyperalgesic activity in Sprague-Dawley rat model of Complete freund's adjuvant-induced arthritis assessed as pain threshold of ipsilateral paw at 30 mg/kg, po starting from day 14 after CFA injection and measured at 45 mins by paw pressure test (reference value: 40.1 +/- 0.7 g); type: functional
Rattus norvegicus [9] = test: Antihyperalgesic activity in Sprague-Dawley rat model of Complete freund's adjuvant-induced arthritis assessed as increase in pain threshold of ipsilateral paw at 3 to 30 mg/kg, po starting from day 14 after CFA injection and measured at 0 to 60 mins by paw pressure test; type: functional, organism-based
Rattus norvegicus [10] = test: Antihyperalgesic activity in Sprague-Dawley rat model of Complete freund's adjuvant-induced arthritis assessed as effect on pain threshold of ipsilateral paw at 30 mg/kg, po starting from day 14 after CFA injection and measured at 60 mins by paw pressure test; type: functional, organism-based
Rattus norvegicus [11] = test: Antihyperalgesic activity in Sprague-Dawley rat model of Complete freund's adjuvant-induced arthritis assessed as increase in pain threshold of ipsilateral paw at 10 mg/kg, po starting from day 14 after CFA injection and measured at 15 mins by paw pressure test; type: functional, organism-based
Rattus norvegicus [12] = test: Antihyperalgesic activity in Sprague-Dawley rat model of Complete freund's adjuvant-induced arthritis assessed as increase in pain threshold of ipsilateral paw at 10 mg/kg, po starting from day 14 after CFA injection and measured at 30 mins by paw pressure test; type: functional
Rattus norvegicus [13] = test: Antihyperalgesic activity in Sprague-Dawley rat model of Complete freund's adjuvant-induced arthritis assessed as increase in pain threshold of ipsilateral paw at 10 mg/kg, po starting from day 14 after CFA injection and measured at 45 mins by paw pressure test; type: functional, organism-based
Rattus norvegicus [14] = test: Antihyperalgesic activity in Sprague-Dawley rat model of Complete freund's adjuvant-induced arthritis assessed as pain threshold of ipsilateral paw at 3 mg/kg, po starting from day 14 after CFA injection and measured at 30 mins by paw pressure test (reference value: 40.1 +/- 0.7 g); type: functional
Rattus norvegicus [15] = test: as §1, with “3 to 30” for “13.4”, “0 to 60” for “15”; type: functional, organism-based
Rattus norvegicus [16] = test: as §1, with “30” for “13.4”, “15 to 45” for “15”; type: functional, organism-based
Rattus norvegicus [17] = test: as §1, with “10” for “13.4”, “15 to 30” for “15”; type: functional, organism-based
Rattus norvegicus [18] = test: Antihyperalgesic activity in Sprague-Dawley rat model of Complete freund's adjuvant-induced arthritis assessed as reduction in difference between weight burdened on contralateral and ipsilateral paw at 3 mg/kg, po starting from day 14 after CFA injection and measured at 30 mins incapacitance test; type: functional, organism-based
Rattus norvegicus [19] = test: Antihyperalgesic activity in Sprague-Dawley rat model of Complete freund's adjuvant-induced arthritis assessed as reduction in difference between weight burdened on contralateral and ipsilateral paw at 10 mg/kg, po starting from day 14 after CFA injection and measured at 30 mins incapacitance test; type: functional, organism-based
[20] = Half life in human plasma by LC-MS/MS analysis; type: ADME, cell-free
[21] = Half life in Sprague-Dawley rat plasma by LC-MS/MS analysis; type: ADME, cell-free
[22] = biological target: Carbonic anhydrase 4 (Homo sapiens) (UniProt P22748)
Carbonic anhydrase 4 (Homo sapiens), sequence (P22748 whole entry): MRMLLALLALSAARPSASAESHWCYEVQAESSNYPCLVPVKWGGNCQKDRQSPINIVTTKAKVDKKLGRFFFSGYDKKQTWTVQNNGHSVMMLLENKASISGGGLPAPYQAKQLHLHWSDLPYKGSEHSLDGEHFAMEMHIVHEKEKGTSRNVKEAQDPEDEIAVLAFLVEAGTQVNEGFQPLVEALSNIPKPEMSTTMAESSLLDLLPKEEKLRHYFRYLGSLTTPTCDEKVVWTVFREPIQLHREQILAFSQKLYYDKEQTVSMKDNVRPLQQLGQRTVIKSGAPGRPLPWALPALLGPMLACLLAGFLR
Description: Inhibition of human CA4 pre-incubated for 6 hrs by stopped- flow CO2 hydrase assay method based Cheng-Prusoff equation analysis

[23] = biological target: Carbonic anhydrase 7 (Homo sapiens) (UniProt P43166)
Carbonic anhydrase 7 (Homo sapiens), sequence (P43166 whole entry): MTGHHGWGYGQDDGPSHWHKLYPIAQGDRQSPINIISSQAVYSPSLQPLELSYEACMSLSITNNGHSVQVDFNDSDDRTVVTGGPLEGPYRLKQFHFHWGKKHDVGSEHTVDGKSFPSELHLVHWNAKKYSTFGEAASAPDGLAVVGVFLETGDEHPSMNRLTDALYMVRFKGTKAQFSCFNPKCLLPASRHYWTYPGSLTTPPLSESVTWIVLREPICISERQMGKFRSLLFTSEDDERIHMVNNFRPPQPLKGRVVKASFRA
Description: Inhibition of human CA7 pre-incubated for 6 hrs by stopped- flow CO2 hydrase assay method based Cheng-Prusoff equation analysis

[24] = biological target: Carbonic anhydrase 1 (Homo sapiens) (UniProt P00915)
Carbonic anhydrase 1 (Homo sapiens), sequence (P00915 2-261 limits assumed): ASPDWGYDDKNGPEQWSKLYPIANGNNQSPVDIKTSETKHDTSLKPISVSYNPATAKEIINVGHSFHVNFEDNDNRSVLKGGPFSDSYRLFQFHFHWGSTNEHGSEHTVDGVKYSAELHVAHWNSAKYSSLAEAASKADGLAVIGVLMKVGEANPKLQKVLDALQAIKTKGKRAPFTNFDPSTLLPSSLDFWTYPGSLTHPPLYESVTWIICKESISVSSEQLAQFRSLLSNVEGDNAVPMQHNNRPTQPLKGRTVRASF
Description: Inhibition of human CA1 pre-incubated for 6 hrs by stopped- flow CO2 hydrase assay method based Cheng-Prusoff equation analysis

[25] = biological target: Carbonic anhydrase 2 (Homo sapiens) (UniProt P00918)
Description: Inhibition of human CA2 pre-incubated for 6 hrs by stopped- flow CO2 hydrase assay method based Cheng-Prusoff equation analysis

[26] = biological target: Carbonic anhydrase 9 (Homo sapiens) (UniProt Q16790)
Description: Inhibition of human CA9 pre-incubated for 6 hrs by stopped- flow CO2 hydrase assay method based Cheng-Prusoff equation analysis

[27] = biological target: Carbonic anhydrase 12 (Homo sapiens) (UniProt O43570)
Carbonic anhydrase 12 (Homo sapiens), sequence (O43570 whole entry): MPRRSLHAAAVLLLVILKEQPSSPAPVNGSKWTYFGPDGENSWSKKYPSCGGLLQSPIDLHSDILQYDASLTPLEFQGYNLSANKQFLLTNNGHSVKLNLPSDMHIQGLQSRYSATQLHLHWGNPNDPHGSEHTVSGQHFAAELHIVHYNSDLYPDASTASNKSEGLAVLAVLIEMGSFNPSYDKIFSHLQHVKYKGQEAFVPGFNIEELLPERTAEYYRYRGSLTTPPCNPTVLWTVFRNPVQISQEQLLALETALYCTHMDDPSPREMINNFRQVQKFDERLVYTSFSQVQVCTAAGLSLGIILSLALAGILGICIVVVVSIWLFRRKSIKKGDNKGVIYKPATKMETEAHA
Description: Inhibition of human CA12 pre-incubated for 6 hrs by stopped- flow CO2 hydrase assay method based Cheng-Prusoff equation analysis

Rattus norvegicus [28] = test: Antihyperalgesic activity in Sprague-Dawley rat model of Complete freund's adjuvant-induced arthritis assessed as increase in pain threshold of ipsilateral paw at 30 mg/kg, po starting from day 14 after CFA injection and measured at 0 to 60 mins by paw pressure test; type: functional, organism-based
[29] = Solubility of the compound; type: physicochemical
Rattus norvegicus [30] = test: Antihyperalgesic activity in Sprague-Dawley rat model of Complete freund's adjuvant-induced arthritis assessed as reduction in difference between weight burdened on contralateral and ipsilateral paw at 30 mg/kg, po starting from day 14 after CFA injection and measured at 30 mins incapacitance test; type: functional, organism-based

Structure (SMILES)	Stability [4]	inhibition at 5 min, 10 µM [5] [%]	half-life [20] [min]	half-life [21] [min]	Ki [22] [nM]	Ki [23] [nM]	Ki [24] [nM]	Ki [25] [nM]	Ki [26] [nM]	Ki [27] [nM]	other results
O=c1ccc2cc(OCCO)ccc2o1	–	–	–	–	–	–	–	–	–	–	Activity (Rattus norvegicus [1]): 51.7 g; Activity (Rattus norvegicus [2]): 18.4 g; Activity (Rattus norvegicus [3]): Active
CC(C(=O)OCCOc1ccc2oc(=O)ccc2c1)c1cccc(C(=O)c2ccccc2)c1 (racemic)	Stable	5 to 30	31	4.7	2.3	> 10000	> 10000	> 10000	36.9	83.1	Activity (Rattus norvegicus [6]): <=53.8 g; Activity (Rattus norvegicus [7]): <=64.4 g; Activity (Rattus norvegicus [8]): <=50 g; Activity (Rattus norvegicus [9]): Dose-dependent effect; Activity (Rattus norvegicus [10]): inactive; Activity (Rattus norvegicus [11]): Active; Activity (Rattus norvegicus [12]): 100%; Activity (Rattus norvegicus [13]): inactive; Activity (Rattus norvegicus [14]): 49.4 g; Activity (Rattus norvegicus [15]): Dose-dependent effect; Activity (Rattus norvegicus [16]): Active; Activity (Rattus norvegicus [17]): Active; Activity (Rattus norvegicus [18]): Active; Activity (Rattus norvegicus [19]): Active
CC(C(=O)OCCOc1ccc2ccc(=O)oc2c1)c1cccc(C(=O)c2ccccc2)c1 (racemic)	Stable	5 to 30	12	2.1	6.7	> 10000	> 10000	> 10000	35.4	55.4	Activity (Rattus norvegicus [28]): inactive; solubility [29]: Insoluble; Activity (Rattus norvegicus [30]): Active
